Assays:
MV4-11 [1] = experiment: Induction of apoptosis in human MV4-11 cells assessed as late apoptotic cells at 600 nM incubated for 72 hrs in presence of vorinostat by Annexin V/PI staining based flow cytometry analysis (reference value: 6.42 %); assay type: functional
MV4-11 [2] = experiment: Antiproliferative activity against human MV4-11 cells assessed as growth inhibition at 0.4 uM measured after 72 hrs in presence of 0.05 uM of vorinostat by CellTiterGlo assay; assay type: functional; conditions: read-out: GI
MV4-11 [3] = experiment: Induction of apoptosis in human MV4-11 cells assessed as necrotic cells at 400 nM incubated for 72 hrs in presence of vorinostat by Annexin V/PI staining based flow cytometry analysis (reference value: 2.61%); assay type: functional
MV4-11 [4] = experiment: Antiproliferative activity against human MV4-11 cells assessed as growth inhibition at 0.2 uM measured after 72 hrs in presence of 0.2 uM of vorinostat by CellTiterGlo assay; assay type: functional; conditions: read-out: GI
MV4-11 [5] = experiment: Antiproliferative activity against human MV4-11 cells assessed as growth inhibition at 0.2 uM measured after 72 hrs in presence of 0.05 uM of vorinostat by CellTiterGlo assay; assay type: functional; conditions: read-out: GI
MV4-11 [6] = experiment: Induction of apoptosis in human MV4-11 cells assessed as viable cells at 600 nM incubated for 72 hrs in presence of vorinostat by Annexin V/PI staining based flow cytometry analysis (reference value: 96.68%); assay type: functional; conditions: read-out: Activity
MV4-11 [7] = experiment: Antiproliferative activity against human MV4-11 cells assessed as growth inhibition at 2 uM measured after 72 hrs in presence of 0.05 uM of vorinostat by CellTiterGlo assay; assay type: functional; conditions: read-out: GI
MV4-11 [8] = experiment: Antiproliferative activity against human MV4-11 cells assessed as growth inhibition at 1 uM measured after 72 hrs in presence of 0.1 uM of vorinostat by CellTiterGlo assay; assay type: functional; conditions: read-out: GI
MV4-11 [9] = experiment: Induction of apoptosis in human MV4-11 cells assessed as early apoptotic cells at 200 nM incubated for 72 hrs by Annexin V/PI staining based flow cytometry analysis (reference value: 0.76%); assay type: functional
MV4-11 [10] = experiment: Antiproliferative activity against human MV4-11 cells assessed as growth inhibition at 0.5 uM measured after 72 hrs in presence of 0.4 uM of vorinostat by CellTiterGlo assay; assay type: functional; conditions: read-out: GI
MV4-11 [11] = experiment: Antiproliferative activity against human MV4-11 cells assessed as growth inhibition at 0.2 uM measured after 72 hrs by CellTiterGlo assay; assay type: functional; conditions: read-out: GI
MV4-11 [12] = experiment: Induction of apoptosis in human MV4-11 cells assessed as viable cells at 200 nM incubated for 72 hrs by Annexin V/PI staining based flow cytometry analysis (reference value: 96.68%); assay type: functional; conditions: read-out: Activity
MV4-11 [13] = experiment: Induction of apoptosis in human MV4-11 cells assessed as early apoptotic cells at 400 nM incubated for 72 hrs in presence of vorinostat by Annexin V/PI staining based flow cytometry analysis (reference value: 0.76 %); assay type: functional
MV4-11 [14] = experiment: Antiproliferative activity against human MV4-11 cells assessed as growth inhibition at 0.2 uM measured after 72 hrs in presence of 0.1 uM of vorinostat by CellTiterGlo assay; assay type: functional; conditions: read-out: GI
MV4-11 [15] = experiment: Induction of apoptosis in human MV4-11 cells assessed as late apoptotic cells at 400 nM incubated for 72 hrs in presence of vorinostat by Annexin V/PI staining based flow cytometry analysis (reference value: 6.42 %); assay type: functional
MV4-11 [16] = experiment: Antiproliferative activity against human MV4-11 cells assessed as growth inhibition at 0.4 uM measured after 72 hrs by CellTiterGlo assay; assay type: functional; conditions: read-out: GI
MV4-11 [17] = experiment: Antiproliferative activity against human MV4-11 cells assessed as growth inhibition at 0.5 uM measured after 72 hrs in presence of 1 uM of vorinostat by CellTiterGlo assay; assay type: functional; conditions: read-out: GI
MV4-11 [18] = experiment: Induction of apoptosis in human MV4-11 cells assessed as viable cells at 400 nM incubated for 72 hrs in presence of vorinostat by Annexin V/PI staining based flow cytometry analysis (reference value: 96.68%); assay type: functional; conditions: read-out: Activity
MV4-11 [19] = experiment: Antiproliferative activity against human MV4-11 cells assessed as growth inhibition at 0.1 uM measured after 72 hrs in presence of 0.1 uM of vorinostat by CellTiterGlo assay; assay type: functional; conditions: read-out: GI
MV4-11 [20] = experiment: Induction of apoptosis in human MV4-11 cells assessed as viable cells at 200 nM incubated for 72 hrs in presence of vorinostat by Annexin V/PI staining based flow cytometry analysis (reference value: 96.68%); assay type: functional; conditions: read-out: Activity
MV4-11 [21] = experiment: Induction of apoptosis in human MV4-11 cells assessed as necrotic cells at 200 nM incubated for 72 hrs in presence of vorinostat by Annexin V/PI staining based flow cytometry analysis (reference value: 2.61%); assay type: functional
MV4-11 [22] = experiment: Induction of apoptosis in human MV4-11 cells assessed as early apoptotic cells at 200 nM incubated for 72 hrs in presence of vorinostat by Annexin V/PI staining based flow cytometry analysis (reference value: 0.76 %); assay type: functional
MV4-11 [23] = experiment: Antiproliferative activity against human MV4-11 cells assessed as growth inhibition at 0.4 uM measured after 72 hrs in presence of 0.2 uM of vorinostat by CellTiterGlo assay; assay type: functional; conditions: read-out: GI
MV4-11 [24] = experiment: Induction of apoptosis in human MV4-11 cells assessed as necrotic cells at 200 nM incubated for 72 hrs by Annexin V/PI staining based flow cytometry analysis (reference value: 2.61%); assay type: functional
MV4-11 [25] = experiment: Antiproliferative activity against human MV4-11 cells assessed as growth inhibition at 0.05 uM measured after 72 hrs in presence of 1 uM of vorinostat by CellTiterGlo assay; assay type: functional; conditions: read-out: GI
MV4-11 [26] = experiment: Antiproliferative activity against human MV4-11 cells assessed as growth inhibition at 0.5 uM measured after 72 hrs in presence of 0.5 uM of vorinostat by CellTiterGlo assay; assay type: functional; conditions: read-out: GI
MV4-11 [27] = experiment: Induction of apoptosis in human MV4-11 cells assessed as late apoptotic cells at 200 nM incubated for 72 hrs by Annexin V/PI staining based flow cytometry analysis (reference value: 6.42%); assay type: functional
MV4-11 [28] = experiment: Induction of apoptosis in human MV4-11 cells assessed as necrotic cells at 100 nmol/L incubated for 72 hrs by Annexin V/PI staining based flow cytometry analysis (reference value: 0.46%); assay type: functional
MOLM-13 = experiment: cells; assay type: functional, cell-based; conditions: Homo sapiens, MOLM-13, 72 h
Description: Antiproliferative activity against human MOLM-13 cells assessed as inhibition of cell growth measured after 72 hrs by CellTiterGlo assay

[29] = Toxicity in mouse implanted in human MV4-11 cells assessed as liver damage at 10 to 30 mg/kg, ip administered daily for 17 days by H and E staining based analysis; assay type: organism-based; conditions: in vivo, 408 h, dose 10-30 mg/kg, time 17 day
[30] = Toxicity in mouse implanted in human MV4-11 cells assessed as body weight loss at 10 to 30 mg/kg, ip administered daily for 17 days; assay type: organism-based; conditions: in vivo, 408 h, dose 10-30 mg/kg, time 17 day
[31] = Toxicity in mouse implanted in human MV4-11 cells assessed as spleen damage at 10 to 30 mg/kg, ip administered daily for 17 days by H and E staining based analysis; assay type: organism-based; conditions: in vivo, 408 h, dose 10-30 mg/kg, time 17 day

SMILES: Cc1c(F)c(N)cc(C(=O)Nc2cc(-c3ccc(C(=O)N4CCOCC4)cc3)ccc2N2CCN(C)CC2)c1Cl
- Activity (MV4-11 [1]): 19.27%
- inhibition of growth at 0.4 µM (MV4-11 [2]): 40%
- Activity (MV4-11 [3]): 3.05%
- inhibition of growth at 0.2 µM (MV4-11 [4]): 48%
- inhibition of growth at 0.2 µM (MV4-11 [5]): 36.8%
- viability at 0.6 µM (MV4-11 [6]): 9.67%
- inhibition of growth at 2 µM (MV4-11 [7]): 55.9%
- inhibition of growth at 1 µM (MV4-11 [8]): 57.4%
- Activity (MV4-11 [9]): 7.03%
- inhibition of growth at 0.5 µM (MV4-11 [10]): 65.2%
- inhibition of growth at 0.2 µM (MV4-11 [11]): 23.9%
- viability at 0.2 µM (MV4-11 [12]): 90.3%
- Activity (MV4-11 [13]): 54.05%
- inhibition of growth at 0.2 µM (MV4-11 [14]): 45%
- Activity (MV4-11 [15]): 16.81%
- inhibition of growth at 0.4 µM (MV4-11 [16]): 25.5%
- inhibition of growth at 0.5 µM (MV4-11 [17]): 91.1%
- viability at 0.4 µM (MV4-11 [18]): 26.1%
- inhibition of growth at 0.1 µM (MV4-11 [19]): 42.8%
- viability at 0.2 µM (MV4-11 [20]): 57%
- Activity (MV4-11 [21]): 1.48%
- Activity (MV4-11 [22]): 33.87%
- inhibition of growth at 0.4 µM (MV4-11 [23]): 59.3%
- Activity (MV4-11 [24]): 1.62%
- inhibition of growth at 0.05 µM (MV4-11 [25]): 86.7%
- inhibition of growth at 0.5 µM (MV4-11 [26]): 73.2%
- Activity (MV4-11 [27]): 1.08%

SMILES: Cc1c(F)c(N)cc(C(=O)Nc2cc(-c3ccc(C(=O)NCc4ccc(/C=C/C(=O)NO)cc4)cc3)ccc2N2CCN(C)CC2)c1Cl
- Activity (MV4-11 [28]): 1.84%
- IC50 (MOLM-13): 70 nM
- Activity [29]: Non-toxic
- Activity [30]: Non-toxic
- Activity [31]: Non-toxic

From ChEMBL document CHEMBL6096706, “Discovery of WDR5-MLL1 and HDAC Dual-Target Inhibitors for the Treatment of Acute Myeloid Leukemia” (J Med Chem, 2025)
